Experimental findings from US11161876B2, “Anti-inflammatory nanofibers” (Northwestern University, priority 2015, dated 2021) are described below.

Assay [1] relates to Rat Bladder Augmentation Model. Kind of assay: Lectin labelling of functional blood vessels in regenerated bladder. It counts as in vivo. Conditions: 5W post-augmentation. As to the method:
In order to determine whether blood vessels in regenerating tissue underwent functional angiogenesis, a fluorochrome conjugated tomato lectin was injected into the animals immediately prior to euthanization to label potential angiogenic vessels. […] Magnification 400× (Scale bar, 50 μm).

A further assay has as its system MPO+ neutrophils. Kind of assay: Immunofluorescence quantification of MPO+ neutrophils in regenerated bladder tissue. It counts as in vivo, rat. As to the method: Athymic female rats (weighing ˜200 g and 8-10 weeks old; National Cancer Institute Animal Production Program) underwent bladder augmentation (ref. 15; herein incorporated by reference in its entirety). Athymic rats were chosen for this study to solely examine the innate immune response to inflammation without influence of the adaptive immune response. In order to induce anesthesia, animals were given intraperitoneal injections of 60 mg/kg ketamine and 5 mg/kg xylazine. A second injection consisting of Buprenex (1 mg/kg) was administered subcutaneously to alleviate any pain/discomfort during and following surgical procedures. An approximate 1.5 cm midline vertical skin incision was created to expose the abdominal fascia and muscles. This was immediately followed by the separation of the wall leading to the identification of the bladder. An approximate 70% supratrigonal cystectomy was performed from anterior to posterior creating a clamshell. Immediately prior to bladder augmentation procedures, samples of the pro-inflammatory biological scaffold, small intestinal submucosa (SIS (0.5×0.5 cm); Cook Biotech.) (refs. 12,13,16; herein incorporated by reference in their entireties) were thoroughly dip-coated separately in one of the previously described AIF-PAs following gelation procedures. The sections of SIS were dip-coated for approximately 20 seconds and allowed to adhere to the SIS for an additional 30 seconds. Dip-coating procedures were performed at room temperature in air. The cystectomized bladder defect was then augmented with: 1) SIS (non-AIF-PA coated SIS; n=8 animals over both time-points); 2) AIF-PA1 coated SIS (denoted as SIS/AIF-PA1; n=11 animals over both time-points); 3) AIF-PA2 coated SIS (denoted as SIS/AIF-PA2; n=8 animals over both time-points); 4) AIF-PA3 coated SIS (denoted as SIS/AIF-PA3; n=3); 5) AIF-PA4 coated SIS (denoted as SIS/AIF-PA4; n=3 animals); 6) AIF-PA5 coated SIS (denoted as SIS/AIF-PA5; n=3 animals); and 7) AIFC-PA6 coated SIS (denoted as SIS/AIFC-PA6; n=9 animals over both time-points). The bladder was finally covered with omentum after being closed in a watertight manner utilizing 7-0 polyglactin suture. The abdominal wall was then closed in a single layer with 5-0 ethibond running suture and the skin re-approximated with 9 mm autoclips. Each group was sacrificed at 10 day and 5 week time-points.
Tissue sections comprised of SIS alone, SIS/AIF-PA1, SIS/AIF-PA2, and SIS/AIF-PA6 augmentations were subjected to immunofluorescence staining by initially undergoing antigen retrieval which consisted of 15 min of boiling in citrate buffer (0.01M citrate solution, pH 6.0 with 0.05% Tween-20) followed by cooling at room temperature for approximately 20 minutes. The antibody staining process consisted of a blocking step for 15 min in bovine serum albumin (BSA, 5 mg/ml) followed by a 40 minutes incubation at room temperature with the primary antibody. After washing with DPBS, slides were incubated for 30 min with a secondary antibody and eventually rinsed with DPBS and air dried. Slides were mounted with Vectashield (Vector Laboratories). Primary antibodies were directed against epitopes for the inflammatory markers CD68 (macrophage) (refs. 18,19; herein incorporated by reference in their entireties) MPO (neutrophil) (ref. 20; herein incorporated by reference in its entirety) or the inflammation-related proteins IL1β, TNFα, IL-10, IL-13, CD206 (M2 macrophage) (refs. 21-25; herein incorporated by reference in their entireties) and CD86 (M1 macrophage) (ref. 26; herein incorporated by reference in its entirety). Antibodies directed against the ECM in regenerating bladder tissue (including COL4A3 and fibronectin) were also utilized. Alexa Red 555 or FITC conjugated secondary antibodies (Molecular Probes) were utilized for visualization (ref. 15; herein incorporated by reference in its entirety). […]

* marks the point of attachment. C16 alkyl = CCCCCCCCCCCCCCCC*

As for “C16-VVVAAAEEEHDMNKVLDL (SEQ ID NO:2) ({C16 alkyl}-VVVAAAEEEHDMNKVLDL-NH2) [SIS/AIF-PA2, anti-inflammatory peptide amphiphile, tested dip-coated on small intestinal submucosa (SIS) scaffold]”, in assay [1], the “functional angiogenesis of newly formed blood vessels (lectin)” value was “functional, patent blood vessels”. Further, the “percentage of cells positive for MPO” value in the assay with MPO+ neutrophils (5 weeks post-augmentation) came out at 7.2±1.1%; in the assay with MPO+ neutrophils (10 days post-augmentation), 9.0±0.5%.

“C16-VVVAAAEEEKLMSQKMVD (SEQ ID NO:6) ({C16 alkyl}-VVVAAAEEEKLMSQKMVD-NH2) [SIS/AIFC-PA6, reference compound]”: the “percentage of cells positive for MPO” value with MPO+ neutrophils (5 weeks post-augmentation) is 17.6±1.8%.

For the substance “C16-VVVAAAEEEMQMKKVLDS (SEQ ID NO:1) ({C16 alkyl}-VVVAAAEEEMQMKKVLDS-NH2) [SIS/AIF-PA1, anti-inflammatory peptide amphiphile, tested dip-coated on small intestinal submucosa (SIS) scaffold]”, the “functional angiogenesis of newly formed blood vessels (lectin)” value in assay [1] was “functional, patent blood vessels”. For the same substance, the “percentage of cells positive for MPO” value in the assay on MPO+ neutrophils (5 weeks post-augmentation) is 5.2±0.7%; in the assay with MPO+ neutrophils (10 days post-augmentation), 6.9±0.7%.
